Source: US10590113B2, “6-hydroxy-4-oxo-1,4-dihydropyrimidine-5-carboxamides as APJ agonists” (priority 2016, dated 2020)

Each compound was assayed against T1, human APJ receptor (Homo sapiens, UniProt P35414) (assay: Intracellular cAMP Accumulation Assay (APJ hcAMP, HTRF)). Conditions: human APJ, intracellular cAMP accumulation; read-out: hAPJ cAMP EC50 Potency range.
T1 construct: expressed in transfected cells; host or cells: HEK293
T1 sequence (P35414 1-380): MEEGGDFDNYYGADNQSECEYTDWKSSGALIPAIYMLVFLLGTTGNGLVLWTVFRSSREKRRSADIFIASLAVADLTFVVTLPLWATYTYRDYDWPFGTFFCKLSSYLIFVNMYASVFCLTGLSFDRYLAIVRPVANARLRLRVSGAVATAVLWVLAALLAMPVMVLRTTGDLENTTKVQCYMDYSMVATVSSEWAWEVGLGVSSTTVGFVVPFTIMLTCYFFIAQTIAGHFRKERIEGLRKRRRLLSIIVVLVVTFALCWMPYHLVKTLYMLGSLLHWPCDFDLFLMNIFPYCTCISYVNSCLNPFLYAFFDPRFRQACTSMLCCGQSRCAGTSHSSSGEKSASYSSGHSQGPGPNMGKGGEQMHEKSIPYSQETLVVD
Format: cell-based
Protocol: Intracellular cAMP Accumulation Assay
HEK293 cells stably expressing human APJ receptor were used to assess the activity of compounds. Cultured cells were detached and resuspended in the cAMP
Homogeneous Time-Resolved Fluorescence (HTRF) assay buffer (Cisbio cat; #62AM4PEJ). The assay was performed in 384-well assay plates (Perkin-Elmer; cat #6008289) according to assay protocol provided by the manufacturer. Serial dilutions of a compound together with assay buffer containing […] IBMX and 2 μM forskolin were added to each well containing 5,000 cells and incubated for 30 minutes at room temperature. Subsequently, cAMP D2 reagent was added in the lysis buffer followed by the EuK antibody (Cisbio; cat #62AM4PEJ) and incubated for 60 min. The fluorescence emission ratio was measured using fluorometer. The intracellular cAMP concentrations (compound-stimulated inhibition of forskolin-mediated cAMP production) were calculated by extrapolation from a standard curve using known cAMP concentrations. The EC50 values were obtained by fitting the data to a sigmoidal concentration-response curve with variable slope.
The EC50 value of each compound is presented at the end of the example description.
The biological activity of the exemplified compounds of this invention determined by the assay described above is shown at the end of each example.
In the case of COc1cccc(OC)c1-n1c(COC(C)C)nc(=O)c(C(=O)N2CCC(c3ccc(F)cc3)C2)c1O (single isomer, unassigned) [Example 102, 1-(2,6-dimethoxyphenyl)-5-[3-(4-fluorophenyl)pyrrolidine-1-carbonyl]-6-hydroxy-2-[(propan-2-yloxy)methyl]-1,4-dihydropyrimidin-4-one], the EC50 is reported as 0.01 to 10 nM. Compound COc1cccc(OC)c1-n1c(COC2CC2)nc(=O)c(C(=O)N2CCC(c3ccc(F)cc3)C2)c1O (single isomer, unassigned) [Example 103, 2-(cyclopropoxymethyl)-1-(2,6-dimethoxyphenyl)-5-[3-(4-fluorophenyl)pyrrolidine-1-carbonyl]-6-hydroxy-1,4-dihydropyrimidin-4-one] has an EC50 of 0.01 to 10 nM. Compound COc1cccc(OC)c1-n1c(COC(C)C)nc(=O)c(C(=O)N2CCC(c3ccccc3C)C2)c1O (single isomer, unassigned) [Example 105, 1-(2,6-dimethoxyphenyl)-6-hydroxy-5-[3-(2-methylphenyl)pyrrolidine-1-carbonyl]-2-[(propan-2-yloxy)methyl]-1,4-dihydropyrimidin-4-one] has an EC50 of 0.01 to 10 nM. In the case of COc1cccc(OC)c1-n1c(COC(C)C)nc(=O)c(C(=O)N2CCC(c3ccc(C#N)cc3)C2)c1O (single isomer, unassigned) [Example 107, 4-{1-[1-(2,6-dimethoxyphenyl)-6-hydroxy-4-oxo-2-[(propan-2-yloxy)methyl]-1,4-dihydropyrimidine-5-carbonyl]pyrrolidin-3-yl}benzonitrile], the EC50 is reported as 0.01 to 10 nM. COc1cccc(OC)c1-n1c(COC(C)C)nc(=O)c(C(=O)N2CCC(c3ccc(C#N)cc3)C2)c1O (single isomer, unassigned) [Example 108, 4-{1-[1-(2,6-dimethoxyphenyl)-6-hydroxy-4-oxo-2-[(propan-2-yloxy)methyl]-1,4-dihydropyrimidine-5-carbonyl]pyrrolidin-3-yl}benzonitrile] gave an EC50 of 0.01 to 10 nM. In the case of CCCCc1nc(=O)c(C(=O)N2CCC(c3cccc(F)c3)C2)c(O)n1[C@@H](CC)c1ccccc1 (single isomer, unassigned) [Example 115], the EC50 is reported as 0.01 to 10 nM. In the case of CCCCc1nc(=O)c(C(=O)N2CCC(c3cccc(F)c3)C2)c(O)n1[C@@H](CC)c1ccccc1 (single isomer, unassigned) [Example 119], the EC50 is reported as 0.01 to 10 nM. Compound COc1ccccc1C1CCN(C(=O)c2c(O)n(-c3c(OC)cccc3OC)c(COC(C)C)nc2=O)C1 (single isomer, unassigned) [Example 160, 1-(2,6-dimethoxyphenyl)-6-hydroxy-5-[3-(2-methoxyphenyl)pyrrolidine-1-carbonyl]-2-[(propan-2-yloxy)methyl]-1,4-dihydropyrimidin-4-one] has an EC50 of 0.01 to 10 nM. COc1ccccc1C1CCN(C(=O)c2c(O)n(-c3c(OC)cccc3OC)c(COC(C)C)nc2=O)C1 (single isomer, unassigned) [Example 161, 1-(2,6-dimethoxy-phenyl)-6-hydroxy-5-[3-(2-methoxy-phenyl)pyrrolidine-1-carbonyl]-2-[(propan-2-yloxy)methyl]-1,4-dihydropyrimidin-4-one] gave an EC50 of 0.01 to 10 nM. COc1cccc(OC)c1-n1c(COC(C)C)nc(=O)c(C(=O)N2CCC(c3ccc(F)cc3F)C2)c1O (single isomer, unassigned) [Example 162, 5-[3-(2,4-difluorophenyl)pyrrolidine-1-carbonyl]-1-(2,6-dimethoxyphenyl)-6-hydroxy-2-[(propan-2-yloxy)methyl]-1,4-dihydropyrimidin-4-one] was tested, and the EC50 was 0.01 to 10 nM. For COc1cccc(OC)c1-n1c(COC(C)C)nc(=O)c(C(=O)N2CCC(c3ccc(F)cc3F)C2)c1O (single isomer, unassigned) [Example 163, 5-[3-(2,4-difluorophenyl)pyrrolidine-1-carbonyl]-1-(2,6-dimethoxyphenyl)-6-hydroxy-2-[(propan-2-yloxy)methyl]-1,4-dihydropyrimidin-4-one], the EC50 was 0.01 to 10 nM. COc1cccc(OC)c1-n1c(COC(C)C)nc(=O)c(C(=O)N2CCC(c3c(F)cccc3F)C2)c1O (single isomer, unassigned) [Example 164, 5-[3-(2,6-difluorophenyl)pyrrolidine-1-carbonyl]-1-(2,6-dimethoxyphenyl)-6-hydroxy-2-[(propan-2-yloxy)methyl]-1,4-dihydropyrimidin-4-one] was tested, and the EC50 was 0.01 to 10 nM. Compound COc1cccc(OC)c1-n1c(COC(C)C)nc(=O)c(C(=O)N2CCC(c3ccccc3C#N)C2)c1O (single isomer, unassigned) [Example 165, 2-{1-[1-(2,6-dimethoxyphenyl)-6-hydroxy-4-oxo-2-[(propan-2-yloxy)methyl]-1,4-dihydropyrimidine-5-carbonyl]pyrrolidin-3-yl}benzonitrile] has an EC50 of 0.01 to 10 nM. COc1cccc(OC)c1-n1c(COC(C)C)nc(=O)c(C(=O)N2CCC(c3c(F)cccc3F)C2)c1O (single isomer, unassigned) [Example 166, 5-[3-(2,6-difluorophenyl)pyrrolidine-1-carbonyl]-1-(2,6-dimethoxyphenyl)-6-hydroxy-2-[(propan-2-yloxy)methyl]-1,4-dihydropyrimidin-4-one] was tested, and the EC50 was 0.01 to 10 nM. COc1cccc(OC)c1-n1c(COC(C)C)nc(=O)c(C(=O)N2CCC(c3ccccc3C#N)C2)c1O (single isomer, unassigned) [Example 167] showed an EC50 of 0.01 to 10 nM. With COc1cccc(OC)c1-n1c(CCC2CC2)nc(=O)c(C(=O)N2CCC(c3ncc(F)cc3F)C2)c1O (single isomer, unassigned) [Example 168, 2-(2-cyclopropylethyl)-5-[3-(3,5-difluoropyridin-2-yl)pyrrolidine-1-carbonyl]-1-(2,6-dimethoxyphenyl)-6-hydroxy-1,4-dihydropyrimidin-4-one] the EC50 was 0.01 to 10 nM. In the case of COc1cccc(OC)c1-n1c(CCC2CC2)nc(=O)c(C(=O)N2CCC(c3ncc(F)cc3F)C2)c1O (single isomer, unassigned) [Example 169, 2-(2-cyclopropylethyl)-5-[3-(3,5-difluoropyridin-2-yl)pyrrolidine-1-carbonyl]-1-(2,6-dimethoxyphenyl)-6-hydroxy-1,4-dihydropyrimidin-4-one], the EC50 is reported as 0.01 to 10 nM. Work on COc1cccc(OC)c1-n1c(CCC2CC2)nc(=O)c(C(=O)N2CCC(c3ccc(Cl)cn3)C2)c1O (single isomer, unassigned) [Example 170, 5-[3-(5-chloropyridin-2-yl)pyrrolidine-1-carbonyl]-2-(2-cyclopropylethyl)-1-(2,6-dimethoxyphenyl)-6-hydroxy-1,4-dihydropyrimidin-4-one] yielded an EC50 of 0.01 to 10 nM. COc1cccc(OC)c1-n1c(CCC2CC2)nc(=O)c(C(=O)N2CCC(c3ccc(Cl)cn3)C2)c1O (single isomer, unassigned) [Example 171, 5-[3-(5-chloropyridin-2-yl)pyrrolidine-1-carbonyl]-2-(2-cyclopropylethyl)-1-(2,6-dimethoxyphenyl)-6-hydroxy-1,4-dihydropyrimidin-4-one] was tested, and the EC50 was 0.01 to 10 nM. COc1cccc(OC)c1-n1c(CCC2CC2)nc(=O)c(C(=O)N2CCC(c3ccc(F)cn3)C2)c1O (single isomer, unassigned) [Example 175, 2-(2-cyclopropylethyl)-1-(2,6-dimethoxyphenyl)-5-[3-(5-fluoropyridin-2-yl)pyrrolidine-1-carbonyl]-6-hydroxy-1,4-dihydropyrimid in-4-one] was tested, and the EC50 was 0.01 to 10 nM.
